The values below come from patent publication US11980772B2, “Method of photodynamic therapy (PDT) for bladder cancer” (priority 2015, dated 2024).

Series [1] concerns bladder cancer. The settings on record: 5-ALA instilled, red light 633 nm, 30 and 50 J/cm^2; cited from earlier work.
Series [2] deals with bladder cancer. Conditions: 5-ALA PDT after mitomycin, red laser light 635 nm, 18 mW/cm^2; cited from earlier work.
Series [3] relates to bladder cancer. The settings on record: cited from earlier work.
The test system of series [4] is superficial bladder tumors (rat bladder carcinoma cell line). Kind of series: PDT with HAL and blue light in orthotopic rat bladder tumor model. In kind it is in vivo. Conditions: HAL 2 mg/ml (8 mM), 1 hour. As for the experimental part:
A rat bladder carcinoma cell line was used in these experiments to establish superficial bladder tumors in Female Fischer rats weighing 150-175 g as described in Francois, et al., J. Urol. 190(2), 2013, 731-736. The animals were used in the experiments 5 days after tumor cell inoculation.
Lyophilized HAL (in the form of Hexvix® powder) was dissolved in PBS to a final concentration of 2 mg/ml (8 mM). 0.5 ml of the solution was instilled into the rat bladder and was left in the bladder for about 1 hour. After evacuation of the HAL solution, 0.5 ml of PBS was instilled into the bladder and whole bladder irradiation with blue light at a fluence rate of 3.5 or 7.0 mW/cm^2 was performed using a 170 mW Modulight laser model ML 6500-405 delivering light at a wavelength of 401 nm, coupled to a fiber with a cylindrical diffuser (1×5 mm) model RD05/500/800 (Medlight, Ecublens, Switzerland) placed in a central position in the bladder. Rats received a blue light dose of 4.0 J/cm^2 (fluence rate 3.5 mW/cm^2) or 7.5 J/cm^2 (fluence rate 7.0 mW/cm^2)
For control, no Hexvix was instilled and only blue light irradiation was carried out at the aforementioned fluence rates/light doses.
The rats were sacrificed 48 hours after illumination by an overdose of pentobarbital. […]

The test system of series [5] is patient-derived bladder tumor. Kind of series: Establishing in vitro primary cell cultures from bladder tumors resected after HAL/blue light TUR. In kind it is cell-based, human. The settings on record: HAL/blue light group; blue light 1.5 to 12.5 mW/cm^2, 0.2 to 15.0 J/cm^2. As for the experimental part:
A solution of HAL (Hexvix®) was instilled into the bladder of patients through a catheter and was left in the bladder for about 1 hour. If the patient could not retain the composition for about 1 hour, at least about 1 hour was allowed to pass from the instillation of Hexvix® to the start of exposing the inside of the bladder to light. After evacuation of Hexvix®, a commercially available blue-light cystoscope was inserted into the bladder and a TUR was carried out by exposing the inside of the bladder to white light for the visual inspection, subsequent blue light exposure for fluorescence detection of bladder cancer lesions, resection of the detected lesions under white light and monitoring of the completeness of the resection by use of blue light. Blue light was provided at a fluence rate of 1.5 to 12.5 mW/cm^2 and a light dose of 0.2 to 15.0 J/cm^2 […] at a fluence rate of 3.0 to 22.0 mW/cm^2 and a light dose of 0.4 to 26.5 J/cm^2.
The resected bladder tumors were processed according to methods known in the art and primary cell cultures were established from said patient-derived bladder tumor under appropriate conditions in culture medium. […]

For series [6], the system named is non-muscle invasive papillary bladder cancer (NMIBC). The experiment in a line: Phase III multicenter study, tumor recurrence after HAL blue light cystoscopy/TUR. The settings on record: 9 months follow-up; for Tumor recurrence rate, All: HAL group (n = 271). It counts as in vivo, human. How it is done:
A prospective, randomized, comparative, controlled phase III multicenter study was carried out in patients with non-muscle invasive papillary bladder cancer (NMIBC). The study population comprised 551 patients which were randomized into two groups (see below). The groups were similar in age, gender, race, bladder cancer history and prior intravesical therapy.
HAL group: 271 patients. The method of the invention was carried out as follows: A solution of HAL (Hexvix®) was instilled into the bladder of patients through a catheter and was left in the bladder for about 1 hour. If the patient could not retain the composition for about 1 hour, at least about 1 hour was allowed to pass from the instillation of Hexvix® to the start of exposing the inside of the bladder to light.
After evacuation of Hexvix®, cystoscopy was carried out with a commercially available cystoscope (blue and white light). The inside of the bladder was first exposed to white light and visually assessed, followed by exposure to blue light to detect cancerous lesions in the bladder. Transurethral resection (TUR) of the detected lesions was carried out under white light and completion of the resection was assessed under blue light.
White light group: 280 patients. Cystoscopy and TUR of bladder cancer under white light only, no HAL.
Patients from both groups with histologically confirmed Ta or T1 lesions were followed up by white light cystoscopy after 3, 6 and 9 months. All tumor recurrences during the 9 months follow-up period were histologically confirmed.
50 patients in the HAL group (18.5%) and 55 patients in the white light group (19.6%) received BCG treatment during the 9 months follow-up period. BCG (Bacillus Calmette-Guérin) is an immunotherapy agent for the treatment of bladder cancer. It is usually repeatedly instilled into the bladder.
Mitomycin is a chemotherapeutic agent for the treatment of bladder cancer. It may be instilled after TUR (single instillation) to e.g. prevent tumor cell seeding, i.e. re-attachment to the bladder wall of tumor cells which were dislocated during resection. Mitomycin was administered after TUR to 16 patients in the HAL group (5.9%) and to 20 patients in the white light group (7.1%).

The test system of series [7] is bladder cancer. Conditions: patients with HAL-guided TUR prior to cystectomy, Kaplan-Meier, cited from earlier work.
Series [8] relates to bladder cancer. The settings on record: cited from earlier work. The source holds these as a separate data set.
The test system of another series is MIBC. The settings on record: neoadjuvant cisplatin-containing chemotherapy; cited from earlier work.

Values joined by “and” are separate entries in the source; they are usually repeats but may differ in a detail not shown here. Equal entries are not always repeated. “Also recorded” adds a separate entry of the source.

Take `NCC(=O)CCC(=O)O` [5-ALA, 5-aminolevulinic acid]: in the series on bladder cancer [1], the “patients whose irritating urinary symptoms did not resolve before 2 weeks” value is reported as 13% and the “side effects in the form of irritating urinary symptoms, occurrence” value was “occurred in all patients”. For the same molecule, the “light dose considered the upper limit of tolerability in terms of side effects” value in the series on bladder cancer [2] was 25 J/cm^2. The “complaints of urinary frequency and urgency, occurrence” value with bladder cancer [3] (5-ALA, white light 100 J/cm^2, 12 patients treated) was “all patients complained about urinary frequency and urgency”. Further, in the series on bladder cancer [3] (of 12 patients treated), the “patients whose symptoms persisted for 3 weeks” value was 5 patients and the “patients whose symptoms subsided within a week” value is 7 patients.
For `CCCCCCOC(=O)CCC(=O)CN` [HAL, n-hexyl 5-amino-4-oxo-pentanoate], the “bladder histology 48 hours after illumination (PDT effect)” value is “no inflammation, persistent and chorion infiltrating tumors; also recorded: looked less compact and the superficial layer of said tumor was destroyed” in series [4] (blue light 3.5 mW/cm^2, 4 J/cm^2, n=2, one animal (50%) each); “increased tissue thickness/inflammation (both signs of PDT effect) and disintegrating/less compact tumor tissue” in [4] (blue light 7.0 mW/cm^2, 7.5 J/cm^2, n=2). The “establishment of in vitro primary cell cultures from resected bladder tumors” value in series [5] is “No in vitro primary cell cultures could be established”. Moreover, the “Tumor recurrence rate, All” value in series [6] (Table 1 and text) is 42.7% and 47.2%; in series [6] (Table 2), 47.2%. Besides, the “Tumor recurrence rate, Received BCG and/or mitomycin” value in series [6] (HAL group) turned out to be 41.5%. For the same molecule, the “Tumor recurrence rate, Received no BCG and/or mitomycin” value in [6] (HAL group) is given as 49.0%. Also, in [6] (HAL group, patients who did not receive BCG), the “Tumor recurrence rate, No BCG” value is recorded as 49.3%. Moreover, the “Tumor recurrence rate, Received BCG” value in series [6] (HAL group, patients who received BCG) was found to be 38.0%. The “3-year overall survival (OS)” value with bladder cancer [7] (56.6% with white light) is 65.0%. Moreover, the “3-year recurrence-free survival (RFS)” value with bladder cancer [7] (58.2% with white light TUR alone) is given as 69.8%. Besides, the “patients tumor-free at 21 months” value with bladder cancer [8] (2 of 17 patients) is given as 11.8%. For the same molecule, the “patients tumor-free at 9 months” value in the series on bladder cancer [8] (4 of 17 patients) is recorded as 23.5%. In addition, the “patients with severe adverse effects” value with bladder cancer [8] (4 patients of 17) is given as 23.5%. Moreover, the “patients tumor-free at 6 months” value in the series with bladder cancer [8] (9 of 17 patients) is listed as 52.9%. For the same molecule, the “number of adverse effects reported” value in the series with bladder cancer [8] (HAL 8 mM and 16 mM, white light 25-100 J/cm^2, 3 PDTs, 17 patients) is listed as 128. Further, the “patients with adverse effects” value in the series with bladder cancer [8] (HAL 8 mM and 16 mM, white light, 3 PDTs) is on record as “about 88%”. Further, the “number of severe adverse effects reported” value in the series on bladder cancer [8] (in 4 patients, 2 considered to relate to the PDT) is recorded as 7.
Consider `N.N.[Cl][Pt][Cl]` [cisplatin], for which the “absolute improvement in survival at 5 years” value in the series on MIBC is 5%.
